Data reported in a melting point compilation (Tetko et al.; mined from patent text by program, amines drawn as free bases though some values may be those of a salt).

Structure (SMILES) | melting point
Oc1cccc(Nc2n[nH]c3ncnc(Nc4cccc(Cl)c4)c23)c1 | 265 to 266 °C
CCn1c(=O)c2c(nc(/C=C/c3ccc4c(c3)OCCO4)n2C)n(CC)c1=O | 233 to 234 °C
COC(=O)CCC(=O)c1ccc(OCc2ccsc2)cc1O | 100 to 102 °C
CN1C(=O)CC[C@]2(C)c3ccc(-c4ccc(S(C)(=O)=O)cc4)cc3CC[C@@H]12 | 229 °C
N#Cc1cc(F)c(N2C(=O)C3CCCCN3C2=O)nc1Cl (centres undefined) | 192 to 193 °C
COc1ccc(C2(C)C(=O)Nc3cc(N4CCN(C)CC4)cc(Cl)c3C2=O)cc1 (centres undefined) | 201 to 202 °C
Cn1ncc(C(=O)c2ccc(S(C)(=O)=O)c(C3=NOCC3)c2Cl)c1O | > 250 °C
O=C1N(Cc2noc(C3CC3)n2)c2ccccc2C12COc1cc3c(cc12)OCO3 (centres undefined) | 136 to 137 °C
C#CCCCOc1c(C)cc(C(N)=O)cc1C | 81 to 84 °C
O=C(OC1CCCCC1C(C[N+](=O)[O-])c1ccc(Cl)cc1)c1ccc([N+](=O)[O-])cc1 (mixture of isomers) | 146 to 148 °C
CCCCn1c(=O)c2c(ncn2S(C)(=O)=O)n(CCCC)c1=O | 98 to 100 °C
CC(C)(C)OC(=O)C1=Cc2cc(Br)ccc2OC1 | 96 to 97 °C
Cc1nc2cc(Br)ccc2c(=O)n1C1CCC(=O)NC1=O (centres undefined) | 315 to 317 °C
Nc1cccc2c1CN(C1CCC(=O)NC1=O)C2=O (centres undefined) | 250 to 252 °C
O=c1[nH]c2cc(Cl)c(Cl)cc2[n+]([O-])c1-c1ccccc1O | 266 to 268 °C
CCN(C(=O)n1nc2c(Cl)c(Cl)c(Cl)c(Cl)c2n1)c1ccccc1 | 157 °C
Cc1cc(-n2cncn2)cc(I)c1N | 151 to 154 °C
O=[N+]([O-])c1c(Br)nn(Cc2ccc(Cl)cc2)c1Br | 109 °C
CN1CCC(C2(O)c3ccccc3C=Cc3ccc(C#N)cc32)CC1 (centres undefined) | 219 to 221 °C
CCCCNc1cc(-c2nc(N)n[nH]2)ccn1 | 268 to 270 °C
CC1(c2ccc(C3(O)CCCCCC3)cc2)OCCO1 | 77 to 79 °C
COc1nc(Nc2ccc(F)cc2F)c(C(=O)O)cc1F | 237 to 240 °C
Cc1c(Cl)cccc1N1C(=O)CN(c2ccccc2)C1=S | 154 to 156 °C
CC(C)(C)c1nc(C=Cc2cccnc2)ncc1O | 150 to 151 °C
N#Cc1ccc(-c2ccncc2OC2SCC(O)C(O)C2O)cc1 (centres undefined) | 238 °C
COc1ccc2c3c(c(=O)oc2c1)CN(Cc1ccc(Cl)c(Cl)c1)CC3 | 144 to 146 °C
O=C(NCCCCCCO)OC1CCN(C(=O)OCc2ccccc2)CC1 | 50 to 52 °C

Structure (SMILES) | melting point
CO[C@@H]1CN(CC2OCCO2)CC[C@@H]1NC(=O)c1cc(Cl)c(N)c2c1OCC2 (relative stereo) | 149 °C
N=C(N)N(CCCCCCCCCCC(=O)O)C(=O)c1nc(Cl)c(N)nc1N | 181 to 191 °C
Cc1cc(C#N)cc(C(=O)Nc2ccc(F)c(Cl)c2)n1 | 204 °C
CCOC(=O)c1cc(O)c(C(=O)c2ccc(C)cc2)c([N+](=O)[O-])c1 | 145 to 147 °C
Cc1cc(C=O)ccc1C(=O)NCC(F)(F)F | 99 to 104 °C
CC(=O)Nc1nc2c(nc(NC(C)=O)n2Cc2cccs2)c(=O)[nH]1 | 243 to 244 °C
O=C(NC(CS)Cc1ccccc1)N1C=CC=CC1 (single isomer, unassigned; (+)) | 115 to 117 °C
CC(CS)C(=O)NC(CCCNC(=N)N)C(=O)O (centres undefined) | 100 °C
COc1cc(C(=O)C(Br)CCC2CCCCC2)c(OC)cc1C (centres undefined) | 75 to 77 °C
CCN1CCN(S(=O)(=O)c2ccc(C(CC3CCCC3)C(=O)Nc3nc4ccc(OC)nc4s3)cc2)CC1 (centres undefined) | 106 to 110 °C
CCc1c(C)[nH]c(=O)c(CC)c1Oc1cc(C)cc(C)c1 | 180 °C
COc1c(C(O)CNC(C)(C)Cc2ccccc2C)ccc(O)c1O (centres undefined) | 114 °C
CCCCCCCCOc1ccc(-c2ccc(OCCCCCCCC)c(F)c2)cc1F | 84 °C
CN(C)C(=O)c1cc(-c2ncc(C(F)(F)F)cc2Cl)ccc1Cl | 90 to 91 °C
CCN(CC)C(=O)N1CCc2ccc(S(=O)(=O)NC(=O)NC3CCCCC3)cc2CC1 | 168 to 169 °C
CN1C(=O)C2(COc3cc4c(cc32)OCCO4)c2c(-c3cnn(C)c3)cccc21 (centres undefined) | 220 to 222 °C
CCOC(=O)c1ccc(NCCCCCCCCCCCCCC[Si](C)(C)C)cc1 | 91 to 92 °C
Cc1cc2c(=O)c(-c3nnnn3C)cn(C)c2cc1C | 245 to 246 °C
OC(c1ccc(Cl)cc1)(c1ccc(Cl)cc1)c1cn[nH]c1 | 135 to 137 °C
O=C1c2ccccc2C(=O)N1C1CCCc2sccc21 (centres undefined) | 166 to 168 °C
CON=C1CCC(C)(C)c2cc(C)c(-c3cc(C=C4SC(=O)NC4=O)ccc3Cl)cc21 | 252 to 254 °C
CC(C)(NC(=O)CCn1cncc1C=O)c1ccc(Cl)cc1 | 127 to 129 °C
CCn1cc(C(=O)O)c(=O)c2cnc(N3CCN(C(C)=O)CC3)nc21 | 298 to 300 °C
O=C1OC(=O)c2c(Sc3ccc(Cl)c(Cl)c3)cc([N+](=O)[O-])cc21 | 154 to 157 °C
O=[N+]([O-])c1ccc(CSSCc2ccc([N+](=O)[O-])cc2)cc1 | 126 °C
C#Cc1cnc(C2=NC(C)(C(C)C)C(=O)N2)c(C(=O)O)c1 (centres undefined) | 190 to 195 °C

Other lines, results leading:

melting point | Structure (SMILES)
242 to 244 °C | Cc1oc2ccccc2c1C(=O)NCc1ccc2c(Br)c(OCc3nnn[nH]3)ccc2c1
105 °C | COC(=O)c1ccc(S(=O)(=O)Cc2c(O[C@H](Cn3ccnc3)c3ccccc3)ccc3c2CCCC3=O)cc1
119 to 121 °C | CN(C)C(=O)Nc1cc(Br)ccc1N1CCc2ccccc21
214 °C | COc1cc(C(=O)c2nc(N)c3ccccn23)ccc1[N+](=O)[O-]
120 °C | C=Cc1ccccc1C(=O)n1nnc2ccccc2c1=O
44 to 47 °C | CC(=O)Nc1ccc(C(F)(F)F)cc1-c1ccc(OC(C)C(O)CCc2cccnc2)cc1 (centres undefined)
86 to 88 °C | COc1ccsc1C(=O)C1C(=O)N(C(N)=O)c2ccc(Cl)cc21 (centres undefined)
202 to 203 °C | COc1cc2c(cc1Nc1ncc(Cl)c(Nc3ccc(OC)c4c3C(=O)N(C)C4)n1)CCN(CC(=O)N(C)C)CC2
128 to 131 °C | COc1ccc(Cc2oc3ccc(O)cc3c2C)cc1
207 to 209 °C | CNS(=O)(=O)c1ccc(C)c(CCCOCCn2cnc3c(N)nc4ccccc4c32)c1
142 °C | COc1ccc(CN(C)CCCCc2ccc(NC(=O)c3cccc4c(=O)c5ccccc5n(C)c34)cc2)cc1OC
236 °C | COC(=O)Cn1c(C)cc(Cc2ccc(F)cc2)c(NC(=O)OCc2ccccc2)c1=O
82 to 83 °C | COC(=O)Nc1nc2ccccc2n1C(=O)NC1CC(C)(C)CC(C)(N(C)C(=O)n2c(NC(=O)OC)nc3ccccc32)C1 (centres undefined)
237 °C | CC(=O)C1=C(O)C(=C(C)Nc2cccc(S(N)(=O)=O)c2)C(=O)OC1=O
180 to 182 °C | CCCCn1nc(C(C)(F)F)nc1Cc1ccc(-c2ccccc2-c2nnn[nH]2)nc1
164 °C | N#CCOc1cccc(CN2C(=O)c3cccc(NC(=O)c4ccc(Cl)s4)c3C2=O)c1
95 to 100 °C | CC(=O)Oc1cccc2oc(C(=O)OCc3ccc(Cl)cc3)c(C)c12
172 to 173 °C | COc1cccc(C(=O)c2c(N)sc3c2CCN(Cc2ccccc2)C3)c1OC
191 to 193 °C | CCCCCCc1nc2ccccc2n1Cc1ccc(C(=O)O)cc1
243 to 245 °C | CCOC(=O)c1cn(CC)c2cc(-c3ccno3)ccc2c1=O
62 °C | COC1=C(OC)C(=O)C(CCCCCCCCCCCCC(=O)O)=C(C)C1=O

melting point | Structure (SMILES)
190 °C | O=C(O)CSc1nccc(-n2cc(C3c4ccccc4C=Cc4ccccc43)c(=S)[nH]c2=O)n1
147 °C | O=C(O)c1ccc(Cc2cc3cc(C(F)(F)F)ccc3n2S(=O)(=O)c2cccc(C3CC3)c2)cc1
92 to 95 °C | CC(C)NCCC(C(N)=O)c1ccccc1-c1ccccc1 (centres undefined)
153 to 154 °C | CCCN1CC(O)c2cc(OC)c(OC)c3c2C1Cc1cc(OC)c(OC)cc1-3 (centres undefined)
238 to 239 °C | COC(=O)C(CC(C)C)NCC(=O)Nc1cccc2c1C(=O)c1c(NC(=O)CNC(CC(C)C)C(=O)OC)cccc1C2=O (centres undefined)
95 to 96 °C | CCOC(=O)c1cn(-c2cccc(OC)c2)cn1
125 °C | CCCCn1ccc(-c2ccc(Oc3ccnc(C)c3)c(F)c2)c(C#N)c1=O
150 to 152 °C | N#Cc1ccc(-c2ccc(OCc3ccccc3)cc2)cc1
128 to 130 °C | COc1cc(N(C)C)c(Cl)cc1C(=O)NCC1CN(CCCOc2ccc(Cl)cc2)CCO1 (centres undefined)
84 to 85 °C | CC(C)[C@H](NC(=O)N(C)Cc1ccccn1)C(=O)N[C@@H](Cc1ccccc1)[C@@H](O)[C@@H](O)[C@H](Cc1ccccc1)NC(=O)OCc1cccnc1
127 to 128 °C | Cc1nc(N2CCN(Cc3ccc(C(F)(F)F)cc3)C2=O)sc1C(=O)NCc1ccccc1
217 to 218 °C | Cc1cc(-c2nc3cccnn3c2-c2ccnc(NC(=O)c3ccsc3)c2)ccc1F
105 to 106 °C | CCc1nc2ccccc2c2ccc(F)cc12
60 to 70 °C | COC(=O)[C@H](Cc1ccc(OCCCN(C)Cc2ccccc2)cc1)NC(=O)[C@@H]1CCCN1S(=O)(=O)c1ccc(C)cc1
215 to 217 °C | CC(C)CC(=O)Nc1cccc(-c2ccnc3c(-c4ccc(Cl)cc4)cnn23)c1
122 to 124 °C | O=C(CNC(=O)c1cc([N+](=O)[O-])c([N+](=O)[O-])cc1Cl)OCc1ccccc1
230 to 238 °C | COc1ccc(C(=O)N[C@@H](CNC(=O)c2ccc(C)cc2)c2ccccc2)cc1
170 to 176 °C | Cc1ccc(S(=O)(=O)OC(=O)c2ccc(C(=O)OS(=O)(=O)c3ccc(C)cc3)cc2)cc1
112 to 115 °C | CC(C)(C)OC(=O)N[C@@H](Cc1ccc(C(=N)NC(=O)OCc2ccccc2)cc1)C(=O)O
124 to 127 °C | Cc1cccc(C)c1N(CC(C)N1C(=O)c2ccccc2C1=O)S(C)(=O)=O (centres undefined)
